These results are taken from ChEMBL document CHEMBL5291721, “A preclinical secondary pharmacology resource illuminates target-adverse drug reaction associations of marketed drugs” (Nat Commun, 2023).

Some targets named below: Vasopressin V1a receptor (Homo sapiens, UniProt P37288); D(3) dopamine receptor (Homo sapiens, UniProt P35462); Histamine H1 receptor (Homo sapiens, UniProt P35367).
The target of experiment [1] is T1, Muscarinic acetylcholine receptor M1 (Homo sapiens, UniProt P11229).
T1 sequence (P11229 whole entry): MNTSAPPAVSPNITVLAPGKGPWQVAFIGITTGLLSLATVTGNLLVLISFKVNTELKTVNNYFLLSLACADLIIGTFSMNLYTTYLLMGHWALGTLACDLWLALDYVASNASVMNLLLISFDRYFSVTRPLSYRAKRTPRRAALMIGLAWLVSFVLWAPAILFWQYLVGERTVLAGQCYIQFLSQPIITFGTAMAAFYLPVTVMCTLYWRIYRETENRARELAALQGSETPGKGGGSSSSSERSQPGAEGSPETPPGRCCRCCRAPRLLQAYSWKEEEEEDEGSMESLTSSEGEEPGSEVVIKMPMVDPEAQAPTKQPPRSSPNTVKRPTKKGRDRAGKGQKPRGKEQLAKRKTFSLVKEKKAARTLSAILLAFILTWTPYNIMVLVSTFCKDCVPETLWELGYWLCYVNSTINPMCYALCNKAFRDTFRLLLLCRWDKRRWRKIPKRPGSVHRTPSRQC
It counts as functional.

In experiment [2] the target is T2, Mu-type opioid receptor (Homo sapiens, UniProt P35372).
For experiment [3], the target named is 5-hydroxytryptamine receptor 2A (Homo sapiens, UniProt P28223). It counts as functional, cell-based.
Experiment [4] addresses Beta-1 adrenergic receptor (Homo sapiens, UniProt P08588). Format: functional.
The target of a further experiment is T3, B2 bradykinin receptor (Homo sapiens, UniProt P30411).
T3 sequence (P30411 whole entry): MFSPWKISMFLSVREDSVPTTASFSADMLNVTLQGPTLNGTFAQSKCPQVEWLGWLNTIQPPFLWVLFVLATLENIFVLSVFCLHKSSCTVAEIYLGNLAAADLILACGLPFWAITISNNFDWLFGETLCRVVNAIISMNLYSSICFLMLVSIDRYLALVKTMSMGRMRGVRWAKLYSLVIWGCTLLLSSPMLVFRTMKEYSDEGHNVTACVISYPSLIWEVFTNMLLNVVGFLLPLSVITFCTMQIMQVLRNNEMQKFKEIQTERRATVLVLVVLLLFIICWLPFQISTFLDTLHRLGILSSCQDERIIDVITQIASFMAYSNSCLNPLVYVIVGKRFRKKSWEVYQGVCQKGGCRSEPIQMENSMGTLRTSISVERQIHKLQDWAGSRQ

Experiment [5] has as its target Glutamate receptor ionotropic, NMDA 1 (Rattus norvegicus, UniProt P35439).
The target in experiment [6] is Voltage-dependent L-type calcium channel subunit alpha-1C (Rattus norvegicus, UniProt P22002). Format: functional.
Experiment [7] deals with T4, Alpha-1A adrenergic receptor (Homo sapiens, UniProt P35348).
T4 sequence (P35348 whole entry): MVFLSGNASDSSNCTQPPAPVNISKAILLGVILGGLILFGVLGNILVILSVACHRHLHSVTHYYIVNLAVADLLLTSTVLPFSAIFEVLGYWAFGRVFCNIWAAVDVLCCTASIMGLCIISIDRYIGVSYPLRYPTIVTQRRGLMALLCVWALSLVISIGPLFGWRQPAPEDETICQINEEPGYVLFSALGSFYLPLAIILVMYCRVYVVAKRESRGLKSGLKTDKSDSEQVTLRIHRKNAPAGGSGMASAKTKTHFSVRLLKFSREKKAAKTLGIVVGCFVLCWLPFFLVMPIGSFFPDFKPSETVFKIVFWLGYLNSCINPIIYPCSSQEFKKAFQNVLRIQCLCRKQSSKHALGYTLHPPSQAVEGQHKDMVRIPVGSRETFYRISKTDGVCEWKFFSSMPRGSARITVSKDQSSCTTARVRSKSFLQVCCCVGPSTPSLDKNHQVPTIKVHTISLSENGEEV
It counts as functional, cell-based.

The target in experiment [8] is T5, Muscarinic acetylcholine receptor M2 (Homo sapiens, UniProt P08172).
T5 sequence (P08172 whole entry): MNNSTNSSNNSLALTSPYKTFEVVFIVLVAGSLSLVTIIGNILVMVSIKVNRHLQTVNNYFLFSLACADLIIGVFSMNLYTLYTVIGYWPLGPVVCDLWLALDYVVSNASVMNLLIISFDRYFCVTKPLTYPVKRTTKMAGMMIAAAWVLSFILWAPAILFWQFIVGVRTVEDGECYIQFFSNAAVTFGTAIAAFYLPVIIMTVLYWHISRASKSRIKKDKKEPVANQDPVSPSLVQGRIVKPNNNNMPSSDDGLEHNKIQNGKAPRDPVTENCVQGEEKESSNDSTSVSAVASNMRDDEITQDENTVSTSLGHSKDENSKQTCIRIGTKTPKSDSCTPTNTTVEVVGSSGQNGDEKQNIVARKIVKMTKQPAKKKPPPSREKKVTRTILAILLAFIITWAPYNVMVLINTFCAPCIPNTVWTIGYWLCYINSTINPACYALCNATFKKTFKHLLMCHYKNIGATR

Experiment [9] deals with 3',5'-cyclic-AMP phosphodiesterase 4A (Homo sapiens, UniProt P27815). Format: functional.
Experiment [10] concerns the target 5-hydroxytryptamine receptor 2B (Homo sapiens, UniProt P41595). It counts as functional, cell-based.
For another experiment, the target named is T6, Thromboxane A2 receptor (Homo sapiens, UniProt P21731).
T6 sequence (P21731 whole entry): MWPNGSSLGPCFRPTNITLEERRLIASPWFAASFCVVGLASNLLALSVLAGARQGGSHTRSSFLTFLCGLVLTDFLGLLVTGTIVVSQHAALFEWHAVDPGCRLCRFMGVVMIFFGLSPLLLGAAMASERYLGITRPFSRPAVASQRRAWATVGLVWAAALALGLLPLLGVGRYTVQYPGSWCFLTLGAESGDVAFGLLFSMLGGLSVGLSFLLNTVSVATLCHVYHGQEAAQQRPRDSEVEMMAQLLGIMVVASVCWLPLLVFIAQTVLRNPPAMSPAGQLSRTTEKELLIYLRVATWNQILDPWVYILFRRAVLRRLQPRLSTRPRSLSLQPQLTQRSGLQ
Format: functional, cell-based.

The target in experiment [11] is T2, Mu-type opioid receptor. This is another data set of the same source.
Also: assay procedure not described here.

Beta-1 adrenergic receptor, sequence (P08588 whole entry): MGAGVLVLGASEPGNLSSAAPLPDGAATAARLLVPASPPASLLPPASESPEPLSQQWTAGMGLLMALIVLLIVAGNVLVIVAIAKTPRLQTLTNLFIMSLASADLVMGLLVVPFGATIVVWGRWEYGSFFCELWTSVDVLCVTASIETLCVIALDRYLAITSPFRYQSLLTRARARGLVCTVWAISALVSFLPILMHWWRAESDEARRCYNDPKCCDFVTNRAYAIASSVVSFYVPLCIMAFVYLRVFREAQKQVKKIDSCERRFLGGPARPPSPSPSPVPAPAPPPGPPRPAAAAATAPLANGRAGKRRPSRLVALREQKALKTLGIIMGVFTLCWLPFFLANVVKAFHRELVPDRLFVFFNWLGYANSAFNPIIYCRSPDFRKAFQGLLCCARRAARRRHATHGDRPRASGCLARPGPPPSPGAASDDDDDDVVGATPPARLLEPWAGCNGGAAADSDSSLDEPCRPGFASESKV
Voltage-dependent L-type calcium channel subunit alpha-1C, sequence (P22002 whole entry): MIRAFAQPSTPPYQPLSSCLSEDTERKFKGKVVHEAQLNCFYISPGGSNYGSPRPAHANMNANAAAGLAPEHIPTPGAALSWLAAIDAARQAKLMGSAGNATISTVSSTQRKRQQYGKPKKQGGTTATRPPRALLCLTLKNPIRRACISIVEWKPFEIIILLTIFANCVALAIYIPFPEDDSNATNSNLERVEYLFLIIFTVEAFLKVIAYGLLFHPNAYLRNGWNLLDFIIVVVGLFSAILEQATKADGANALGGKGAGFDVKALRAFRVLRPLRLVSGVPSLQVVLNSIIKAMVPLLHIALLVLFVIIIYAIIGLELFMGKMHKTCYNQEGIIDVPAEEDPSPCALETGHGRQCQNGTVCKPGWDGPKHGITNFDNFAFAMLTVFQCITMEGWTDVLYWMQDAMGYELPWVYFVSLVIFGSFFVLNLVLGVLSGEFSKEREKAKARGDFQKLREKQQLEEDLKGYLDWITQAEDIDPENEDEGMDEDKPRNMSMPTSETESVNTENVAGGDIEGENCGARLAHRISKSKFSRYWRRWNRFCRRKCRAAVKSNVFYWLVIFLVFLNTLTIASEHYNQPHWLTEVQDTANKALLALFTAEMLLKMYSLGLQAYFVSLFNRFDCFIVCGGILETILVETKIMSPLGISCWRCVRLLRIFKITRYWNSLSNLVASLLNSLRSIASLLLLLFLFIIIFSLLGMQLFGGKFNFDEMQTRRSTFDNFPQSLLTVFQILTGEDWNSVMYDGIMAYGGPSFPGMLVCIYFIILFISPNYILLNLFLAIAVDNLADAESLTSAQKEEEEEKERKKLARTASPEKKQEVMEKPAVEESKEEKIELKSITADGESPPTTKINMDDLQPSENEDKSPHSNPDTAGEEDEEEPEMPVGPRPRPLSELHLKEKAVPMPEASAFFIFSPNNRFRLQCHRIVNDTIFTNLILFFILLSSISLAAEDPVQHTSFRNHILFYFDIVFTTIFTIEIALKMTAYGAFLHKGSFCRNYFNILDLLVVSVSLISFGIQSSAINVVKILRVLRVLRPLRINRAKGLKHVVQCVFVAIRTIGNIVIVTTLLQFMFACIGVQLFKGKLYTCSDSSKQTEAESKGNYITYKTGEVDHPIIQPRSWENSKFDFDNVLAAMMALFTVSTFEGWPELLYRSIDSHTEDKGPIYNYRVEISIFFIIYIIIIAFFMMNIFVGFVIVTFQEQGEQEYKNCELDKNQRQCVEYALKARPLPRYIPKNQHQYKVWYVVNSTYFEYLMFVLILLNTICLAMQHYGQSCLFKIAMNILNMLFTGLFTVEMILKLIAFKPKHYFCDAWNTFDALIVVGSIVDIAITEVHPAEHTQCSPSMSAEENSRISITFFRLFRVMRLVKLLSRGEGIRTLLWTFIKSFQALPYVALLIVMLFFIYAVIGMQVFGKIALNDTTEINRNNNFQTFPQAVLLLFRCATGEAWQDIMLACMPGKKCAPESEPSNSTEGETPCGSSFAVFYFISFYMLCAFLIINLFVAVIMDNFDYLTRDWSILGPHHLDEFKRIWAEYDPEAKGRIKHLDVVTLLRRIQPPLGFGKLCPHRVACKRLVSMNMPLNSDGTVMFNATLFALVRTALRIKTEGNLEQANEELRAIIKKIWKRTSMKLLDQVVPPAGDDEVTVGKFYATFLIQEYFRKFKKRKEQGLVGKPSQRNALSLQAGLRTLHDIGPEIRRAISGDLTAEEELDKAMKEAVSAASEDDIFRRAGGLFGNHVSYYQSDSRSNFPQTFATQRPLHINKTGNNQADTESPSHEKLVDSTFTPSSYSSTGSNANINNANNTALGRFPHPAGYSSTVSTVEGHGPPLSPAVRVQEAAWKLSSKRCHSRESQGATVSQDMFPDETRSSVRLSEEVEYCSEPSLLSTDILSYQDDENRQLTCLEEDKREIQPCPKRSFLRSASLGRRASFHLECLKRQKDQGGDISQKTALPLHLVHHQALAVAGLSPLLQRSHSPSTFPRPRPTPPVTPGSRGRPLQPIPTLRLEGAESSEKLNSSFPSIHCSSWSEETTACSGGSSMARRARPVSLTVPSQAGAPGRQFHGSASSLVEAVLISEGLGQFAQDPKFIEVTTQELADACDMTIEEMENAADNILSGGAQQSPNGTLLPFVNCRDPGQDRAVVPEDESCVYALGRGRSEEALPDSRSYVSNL
D(3) dopamine receptor, sequence (P35462 whole entry): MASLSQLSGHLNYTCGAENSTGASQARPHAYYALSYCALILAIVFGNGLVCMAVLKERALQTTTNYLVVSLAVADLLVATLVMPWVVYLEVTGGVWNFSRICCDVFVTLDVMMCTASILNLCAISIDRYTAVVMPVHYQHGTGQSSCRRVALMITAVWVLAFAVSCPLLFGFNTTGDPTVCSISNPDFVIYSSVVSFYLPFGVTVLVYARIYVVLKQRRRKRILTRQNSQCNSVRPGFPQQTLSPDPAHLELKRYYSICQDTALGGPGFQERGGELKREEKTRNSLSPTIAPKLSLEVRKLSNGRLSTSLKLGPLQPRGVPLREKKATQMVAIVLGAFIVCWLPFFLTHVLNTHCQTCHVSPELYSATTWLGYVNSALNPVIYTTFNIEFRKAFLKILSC
5-hydroxytryptamine receptor 2B, sequence (P41595 whole entry): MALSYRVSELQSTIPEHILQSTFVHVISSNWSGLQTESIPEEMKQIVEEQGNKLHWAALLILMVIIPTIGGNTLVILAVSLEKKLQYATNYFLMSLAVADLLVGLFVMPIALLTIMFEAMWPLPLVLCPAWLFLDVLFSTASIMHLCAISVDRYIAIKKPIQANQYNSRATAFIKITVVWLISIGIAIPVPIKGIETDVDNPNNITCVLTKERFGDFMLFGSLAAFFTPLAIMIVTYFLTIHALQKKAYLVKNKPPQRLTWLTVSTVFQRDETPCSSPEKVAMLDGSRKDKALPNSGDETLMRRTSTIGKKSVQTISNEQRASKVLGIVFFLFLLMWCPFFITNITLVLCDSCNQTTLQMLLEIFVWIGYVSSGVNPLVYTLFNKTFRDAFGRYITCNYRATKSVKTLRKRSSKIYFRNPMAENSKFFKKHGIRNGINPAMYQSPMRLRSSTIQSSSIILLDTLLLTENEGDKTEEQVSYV
T2 sequence (P35372 whole entry): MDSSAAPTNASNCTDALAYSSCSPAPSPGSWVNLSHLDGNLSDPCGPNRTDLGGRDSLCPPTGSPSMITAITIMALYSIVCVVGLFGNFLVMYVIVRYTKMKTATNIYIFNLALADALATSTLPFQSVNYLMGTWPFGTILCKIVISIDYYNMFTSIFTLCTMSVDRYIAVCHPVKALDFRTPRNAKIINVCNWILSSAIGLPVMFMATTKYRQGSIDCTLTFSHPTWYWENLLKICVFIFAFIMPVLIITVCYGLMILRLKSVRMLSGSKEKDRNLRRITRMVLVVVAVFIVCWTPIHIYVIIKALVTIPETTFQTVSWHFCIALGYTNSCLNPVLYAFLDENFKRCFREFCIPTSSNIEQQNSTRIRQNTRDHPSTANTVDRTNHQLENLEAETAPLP
5-hydroxytryptamine receptor 2A, sequence (P28223 whole entry): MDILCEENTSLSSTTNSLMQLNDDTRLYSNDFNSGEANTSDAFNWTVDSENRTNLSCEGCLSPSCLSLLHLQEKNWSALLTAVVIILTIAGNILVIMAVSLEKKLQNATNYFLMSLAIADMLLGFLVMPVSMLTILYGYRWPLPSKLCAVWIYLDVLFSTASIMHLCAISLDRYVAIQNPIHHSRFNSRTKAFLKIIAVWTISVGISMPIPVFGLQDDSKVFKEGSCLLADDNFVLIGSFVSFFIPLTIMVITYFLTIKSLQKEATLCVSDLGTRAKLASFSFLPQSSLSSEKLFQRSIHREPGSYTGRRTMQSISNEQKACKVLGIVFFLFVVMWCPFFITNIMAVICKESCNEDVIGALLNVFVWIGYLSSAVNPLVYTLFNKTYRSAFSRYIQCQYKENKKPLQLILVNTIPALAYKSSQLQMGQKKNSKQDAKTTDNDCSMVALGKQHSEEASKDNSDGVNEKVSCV
Vasopressin V1a receptor, sequence (P37288 whole entry): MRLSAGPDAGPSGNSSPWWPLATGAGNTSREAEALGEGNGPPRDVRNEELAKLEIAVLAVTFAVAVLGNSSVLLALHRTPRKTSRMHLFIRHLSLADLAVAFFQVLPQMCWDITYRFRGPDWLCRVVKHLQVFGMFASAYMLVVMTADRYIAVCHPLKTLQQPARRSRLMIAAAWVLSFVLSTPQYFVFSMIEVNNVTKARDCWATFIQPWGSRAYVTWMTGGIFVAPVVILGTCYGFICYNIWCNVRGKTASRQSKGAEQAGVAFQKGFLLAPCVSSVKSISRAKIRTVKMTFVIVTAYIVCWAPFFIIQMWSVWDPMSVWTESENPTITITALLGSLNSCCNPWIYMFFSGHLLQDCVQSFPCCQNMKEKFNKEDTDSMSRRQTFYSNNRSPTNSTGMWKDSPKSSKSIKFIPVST

What is called AC50 is the concentration giving half of the maximal activity seen. In the case of `CN1CC2c3ccccc3Oc3ccc(Cl)cc3C2C1` (stereo not drawn) [ASENAPINE], the concentration at half-maximal activity (AC50) (in [1]; on Mu-type opioid receptor [2]; in [3]; in experiment [4]; on Vasopressin V1a receptor) was greater than 30 µM each time.

For `NCCCCCC(=O)O` [AMINOCAPROIC ACID], the AC50 at B2 bradykinin receptor is greater than 10 µM; at Mu-type opioid receptor [2], greater than 30 µM; in [5] it was greater than 10 µM; in experiment [4], greater than 10 µM; in experiment [6], greater than 10 µM.

`Cc1c(C)c2c(c(C)c1O)CCC(C)(COc1ccc(CC3SC(=O)NC3=O)cc1)O2` (stereo not drawn) [TROGLITAZONE]: the AC50 is greater than 30 µM on B2 bradykinin receptor; 3.96 µM in [7]; 17.8 µM in experiment [8]; 4.9 µM in experiment [9]; greater than 30 µM on Mu-type opioid receptor [2]; greater than 30 µM in experiment [5]. In addition, the half-maximal activity concentration (AC50) was 20 µM in [4]; 6.23 µM on D(3) dopamine receptor; greater than 30 µM in [10]; 17.6 µM on Thromboxane A2 receptor; 14 µM on Mu-type opioid receptor [11]; greater than 30 µM at Vasopressin V1a receptor. In [6], the half-maximal activity concentration (AC50) came out at 21 µM.

With `CN(C)CCC=C1c2ccccc2CCc2ccccc21` [AMITRIPTYLINE], the AC50 on B2 bradykinin receptor was greater than 30 µM; in experiment [9], greater than 30 µM; on Mu-type opioid receptor [2], greater than 30 µM; in experiment [5], greater than 10 µM; in experiment [4], 22.7 µM; on D(3) dopamine receptor, 0.147 µM. The half-maximal activity concentration (AC50) at Thromboxane A2 receptor is greater than 30 µM; on Mu-type opioid receptor [11] it was 9.46 µM; on Vasopressin V1a receptor, greater than 30 µM; in experiment [6], greater than 10 µM.

Turning to `CC(=O)Oc1ccccc1C(=O)O` [ASPIRIN], the AC50 at B2 bradykinin receptor is greater than 30 µM; in [7], greater than 30 µM; in experiment [8], greater than 30 µM; in experiment [9] it was greater than 30 µM; at Mu-type opioid receptor [2], greater than 30 µM; in experiment [5], greater than 10 µM. The AC50 is greater than 10 µM in experiment [4]; greater than 30 µM on D(3) dopamine receptor; greater than 30 µM in experiment [10]; greater than 30 µM at Thromboxane A2 receptor; greater than 30 µM on Mu-type opioid receptor [11]; greater than 30 µM on Vasopressin V1a receptor. In experiment [6], the AC50 is greater than 10 µM.

For `C#CCN(C)Cc1ccccc1` [PARGYLINE], the AC50 (at Histamine H1 receptor; in experiment [8]; in experiment [9]; in experiment [1]; in experiment [3]; in experiment [5]) was greater than 30 µM each time. Further, the concentration at half-maximal activity (AC50) (on D(3) dopamine receptor; in experiment [10]; on Thromboxane A2 receptor; on Mu-type opioid receptor [11]) was greater than 30 µM throughout.

Regarding `CCOC(=O)[C@H](CCc1ccccc1)N[C@@H](C)C(=O)N1Cc2ccccc2C[C@H]1C(=O)O`, the AC50 on B2 bradykinin receptor is greater than 30 µM; in experiment [7], greater than 30 µM; in experiment [8], greater than 30 µM; in experiment [9], greater than 30 µM; on Mu-type opioid receptor [2], greater than 10 µM; in experiment [5] it was greater than 10 µM. The AC50 in experiment [4] is greater than 10 µM; on D(3) dopamine receptor it was greater than 30 µM; in experiment [10] it was greater than 30 µM; on Thromboxane A2 receptor it was greater than 30 µM; on Mu-type opioid receptor [11], greater than 30 µM; at Vasopressin V1a receptor, greater than 10 µM. Besides, the concentration at half-maximal activity (AC50) in experiment [6] was greater than 10 µM.

As to `O=C(Cc1cccs1)N[C@@H]1C(=O)N2C(C(=O)[O-])=C(C[n+]3ccccc3)CS[C@H]12` [CEPHALORIDINE], the AC50 was greater than 30 µM on Histamine H1 receptor; greater than 30 µM in experiment [8]; greater than 3 µM in experiment [9]; greater than 30 µM in experiment [1]; greater than 30 µM in [3]; greater than 30 µM in [5]. The AC50 (on D(3) dopamine receptor; in experiment [10]; on Thromboxane A2 receptor; on Mu-type opioid receptor [11]) was greater than 30 µM each time.

As to `O=C(O)COC(=O)Cc1ccccc1Nc1c(Cl)cccc1Cl` [ACECLOFENAC], the half-maximal activity concentration (AC50) at B2 bradykinin receptor is greater than 30 µM; on Mu-type opioid receptor [2], greater than 30 µM; in experiment [5], greater than 10 µM; in experiment [4], greater than 10 µM; on Vasopressin V1a receptor, greater than 30 µM; in experiment [6] it was greater than 10 µM.

As to `NCC1(CC(=O)O)CCCCC1` [GABAPENTIN], the half-maximal activity concentration (AC50) was greater than 30 µM at B2 bradykinin receptor; greater than 30 µM in experiment [7]; greater than 30 µM in experiment [8]; greater than 30 µM in experiment [9]; greater than 30 µM on Mu-type opioid receptor [2]; greater than 10 µM in experiment [5]. Besides, the concentration at half-maximal activity (AC50) (in experiment [4]; on D(3) dopamine receptor; in [10]; on Thromboxane A2 receptor; on Mu-type opioid receptor [11]; at Vasopressin V1a receptor) was greater than 30 µM throughout. In addition, the concentration at half-maximal activity (AC50) in [6] was greater than 10 µM.

Turning to `CCC1(c2ccccc2)C(=O)NCNC1=O` [PRIMIDONE], the AC50 is greater than 10 µM at B2 bradykinin receptor; greater than 30 µM at Mu-type opioid receptor [2]; greater than 10 µM in experiment [5]; greater than 10 µM in experiment [4]; greater than 10 µM in [6].

Take `CCN(CCO)CCCC(C)Nc1ccnc2cc(Cl)ccc12` (stereo not drawn) [HYDROXYCHLOROQUINE]: the concentration at half-maximal activity (AC50) on B2 bradykinin receptor is greater than 10 µM; on Mu-type opioid receptor [2], greater than 30 µM; in experiment [5] it was greater than 10 µM; in experiment [6], greater than 10 µM.

In the case of `C[C@H](CS)C(=O)N1CCC[C@H]1C(=O)O` [CAPTOPRIL], the AC50 at B2 bradykinin receptor was greater than 30 µM; on Mu-type opioid receptor [2], greater than 30 µM; in experiment [5], greater than 10 µM; in experiment [4] it was greater than 10 µM; in [6], greater than 10 µM.

Take `O=C(c1ccccc1)c1ccc2n1CCC2C(=O)O` (stereo not drawn) [KETOROLAC]: the half-maximal activity concentration (AC50) is greater than 10 µM at B2 bradykinin receptor; greater than 30 µM at Mu-type opioid receptor [2]; greater than 30 µM in experiment [5]; greater than 10 µM in experiment [4]; greater than 10 µM on Vasopressin V1a receptor; greater than 30 µM in [6].

Regarding `Nc1nnc(-c2cccc(Cl)c2Cl)c(N)n1` [LAMOTRIGINE], the concentration at half-maximal activity (AC50) on B2 bradykinin receptor was greater than 30 µM; at Mu-type opioid receptor [2], greater than 30 µM; in experiment [5] it was greater than 10 µM; in experiment [4], greater than 10 µM; on Vasopressin V1a receptor, greater than 10 µM.
